Experiments:
U251 = experiment: cells; format: cell-based; conditions: Homo sapiens, U-251, read-out: growth inhibition % (GI%)
HCT-15 = experiment: cells; format: cell-based; conditions: Homo sapiens, HCT-15, read-out: growth inhibition % (GI%)
HCT-116 = experiment: cells; format: cell-based; conditions: Homo sapiens, HCT-116, read-out: growth inhibition % (GI%)
HOP-62 = experiment: cells; format: cell-based; conditions: Homo sapiens, HOP-62, read-out: growth inhibition % (GI%)
NCI-H226 = experiment: cells; format: cell-based; conditions: Homo sapiens, NCI-H226, read-out: growth inhibition % (GI%)
SR = experiment: cells; format: cell-based; conditions: Homo sapiens, read-out: growth inhibition % (GI%)
A498 = experiment: cells; format: cell-based; conditions: Homo sapiens, A498, read-out: growth inhibition % (GI%)
SNB-75 = experiment: cells; format: cell-based; conditions: Homo sapiens, SNB-75, read-out: growth inhibition % (GI%)
HT29 = experiment: cells; format: cell-based; conditions: Homo sapiens, HT-29, read-out: growth inhibition % (GI%)
NCI-H460 = experiment: cells; format: cell-based; conditions: Homo sapiens, NCI-H460, read-out: growth inhibition % (GI%)
OVCAR-4 = experiment: cells; format: cell-based; conditions: Homo sapiens, OVCAR-4, read-out: growth inhibition % (GI%)
MOLT-4 = experiment: cells; format: cell-based; conditions: Homo sapiens, MOLT-4, read-out: growth inhibition % (GI%)
SK-MEL-2 = experiment: cells; format: cell-based; conditions: Homo sapiens, SK-MEL-2, read-out: growth inhibition % (GI%)
EKVX = experiment: cells; format: cell-based; conditions: Homo sapiens, read-out: growth inhibition % (GI%)
IGROV1 = experiment: cells; format: cell-based; conditions: Homo sapiens, IGROV-1, read-out: growth inhibition % (GI%)
DU-145 = experiment: cells; format: cell-based; conditions: Homo sapiens, DU-145, read-out: growth inhibition % (GI%)
PC-3 = experiment: cells; format: cell-based; conditions: Homo sapiens, PC-3, read-out: growth inhibition % (GI%)
UACC-257 = experiment: cells; format: cell-based; conditions: Homo sapiens, UACC-257, read-out: growth inhibition % (GI%)
TK-10 = experiment: cells; format: cell-based; conditions: Homo sapiens, TK-10, read-out: growth inhibition % (GI%)
T-47D = experiment: cells; format: cell-based; conditions: Homo sapiens, T47D, read-out: growth inhibition % (GI%)
COLO-205 = experiment: cells; format: cell-based; conditions: Homo sapiens, COLO 205, read-out: growth inhibition % (GI%)
MDA-MB-231/ATCC = experiment: NCI 60 cell line antiproliferative screening (SRB), Breast cancer; format: cell-based; conditions: Homo sapiens, MDA-MB-231, read-out: growth inhibition % (GI%)
NCI/ADR-RES = experiment: cells; format: cell-based; conditions: Homo sapiens, read-out: growth inhibition % (GI%)
SK-OV-3 = experiment: cells; format: cell-based; conditions: Homo sapiens, SK-OV-3, read-out: growth inhibition % (GI%)
NCI-H522 = experiment: cells; format: cell-based; conditions: Homo sapiens, NCI-H522, read-out: growth inhibition % (GI%)
MCF7 = experiment: cells; format: cell-based; conditions: Homo sapiens, MCF7, read-out: growth inhibition % (GI%)
MDA-MB-435 = experiment: cells; format: cell-based; conditions: Homo sapiens, MDA-MB-435, read-out: growth inhibition % (GI%)
UACC-62 = experiment: cells; format: cell-based; conditions: Homo sapiens, UACC-62, read-out: growth inhibition % (GI%)
LOX IMIV = experiment: cells; format: cell-based; conditions: Homo sapiens, 60 cell, read-out: growth inhibition % (GI%)
SK-MEL-28 = experiment: cells; format: cell-based; conditions: Homo sapiens, SK-MEL-28, read-out: growth inhibition % (GI%)
MDA-MB-468 = experiment: NCI 60 cell line antiproliferative screening (SRB), Breast cancer; conditions: Homo sapiens, MDA-MB-468, read-out: growth inhibition % (GI%)
HOP-92 = experiment: cells; format: cell-based; conditions: Homo sapiens, HOP-92, read-out: growth inhibition % (GI%)
HS 578T = experiment: cells; format: cell-based; conditions: Homo sapiens, Hs-578T, read-out: growth inhibition % (GI%)
786-0 = experiment: cells; format: cell-based; conditions: Homo sapiens, 786-0, read-out: growth inhibition % (GI%)
SNB-19 = experiment: cells; format: cell-based; conditions: Homo sapiens, SNB-19, read-out: growth inhibition % (GI%)
SF-539 = experiment: cells; format: cell-based; conditions: Homo sapiens, SF-539, read-out: growth inhibition % (GI%)
KM12 = experiment: cells; format: cell-based; conditions: Homo sapiens, KM12, read-out: growth inhibition % (GI%)
OVCAR-3 = experiment: NCI 60 cell line antiproliferative screening (SRB), Ovarian cancer; conditions: Homo sapiens, OVCAR-3, read-out: growth inhibition % (GI%)
RPMI-8226 = experiment: cells; format: cell-based; conditions: Homo sapiens, RPMI-8226, read-out: growth inhibition % (GI%)
[1] = tested on: panel of 60 tumour cell lines; experiment: NCI 60 cell line antiproliferative screening (SRB), whole panel or subpanels (means, ranges, words); format: cell-based, human; conditions: Homo sapiens, 60 cell, mean over the cell line panel; 10 μM; read-out: Mean growth inhibition % (mean GI%)
A549/ATCC = experiment: cells; format: cell-based; conditions: Homo sapiens, A549, read-out: growth inhibition % (GI%)
OVCAR-5 = experiment: cells; format: cell-based; conditions: Homo sapiens, OVCAR-5, read-out: growth inhibition % (GI%)
NCI-H322M = experiment: cells; format: cell-based; conditions: Homo sapiens, read-out: growth inhibition % (GI%)
HCC-2998 = experiment: cells; format: cell-based; conditions: Homo sapiens, HCC 2998, read-out: growth inhibition % (GI%)
HL-60(TB) = experiment: cells; format: cell-based; conditions: Homo sapiens, HL-60, read-out: growth inhibition % (GI%)
BT-549 = experiment: cells; format: cell-based; conditions: Homo sapiens, BT-549, read-out: growth inhibition % (GI%)

## O=C(CSc1nc2ccccc2c(=O)n1-c1ccc(Cl)cc1)NN=Cc1ccc(N2CCCCC2)cc1 [6j, 2-((3–(4-chlorophenyl)-4-oxo-3,4-dihydroquinazolin-2-yl)thio)-N'-(4-(piperidin-1-yl)benzylidene) acetohydrazide]
U251
  inhibition at 10 µM: 49.4%
HCT-15
  inhibition at 10 µM: 32.2%
HCT-116
  inhibition at 10 µM: 63.1%
HOP-62
  inhibition at 10 µM: 81.6%
NCI-H226
  inhibition at 10 µM: 61.8%
SR
  inhibition at 10 µM: 25.2%
A498
  inhibition at 10 µM: 21.5%
SNB-75
  inhibition at 10 µM: 20.1%
HT29
  inhibition at 10 µM: 39.1%
NCI-H460
  inhibition at 10 µM: 90.3%
OVCAR-4
  inhibition at 10 µM: 41.4%
MOLT-4
  inhibition at 10 µM: < 15%
SK-MEL-2
  inhibition at 10 µM: < 15%
EKVX
  inhibition at 10 µM: 17.9%
IGROV1
  inhibition at 10 µM: 44.5%
DU-145
  inhibition at 10 µM: 70.9%
PC-3
  inhibition at 10 µM: 21.4%
UACC-257
  inhibition at 10 µM: < 15%
TK-10
  inhibition at 10 µM: < 15%
T-47D
  inhibition at 10 µM: 25.4%
COLO-205
  inhibition at 10 µM: 17.9%
MDA-MB-231/ATCC
  inhibition at 10 µM: 28.1%
NCI/ADR-RES
  inhibition at 10 µM: 60.1%
SK-OV-3
  inhibition at 10 µM: 69.9%
NCI-H522
  inhibition at 10 µM: < 15%
MCF7
  inhibition at 10 µM: 32.5%
MDA-MB-435
  inhibition at 10 µM: < 15%
UACC-62
  inhibition at 10 µM: 26.5%
LOX IMIV
  inhibition at 10 µM: 56.5%
SK-MEL-28
  inhibition at 10 µM: 15.2%
MDA-MB-468
  inhibition at 10 µM: 20.5%
HOP-92
  inhibition at 10 µM: 37.7%
HS 578T
  inhibition at 10 µM: 62.1%
786-0
  inhibition at 10 µM: 92.8%
SNB-19
  inhibition at 10 µM: 56.8%
SF-539
  inhibition at 10 µM: 58.7%
KM12
  inhibition at 10 µM: 3.59%
OVCAR-3
  inhibition at 10 µM: 67.2%
RPMI-8226
  inhibition at 10 µM: < 15%
[1]
  inhibition at 10 µM: 34.2%
A549/ATCC
  inhibition at 10 µM: 50.6%
OVCAR-5
  inhibition at 10 µM: 23.1%
NCI-H322M
  inhibition at 10 µM: 23%
HCC-2998
  inhibition at 10 µM: < 15%
HL-60(TB)
  inhibition at 10 µM: < 15%
BT-549
  inhibition at 10 µM: < 15%

Source: paper PMC9518264, “Design and synthesis of novel quinazolinone-based derivatives as EGFR inhibitors with antitumor activity” (Journal of Enzyme Inhibition and Medicinal Chemistry, 2022)
